Measured values as given in article PMC2918394 (Journal of medicinal chemistry, 2010).

Key:
[1] = target: SARS-CoV PLpro (Severe acute respiratory syndrome coronavirus, UniProt P0C6X7); assay type: biochemical
[2] = test system: SARS-CoV; assay type: cell-based; conditions: SARS-CoV infected Vero E6 cells

## 1-[1-(2-Naphthyl)ethyl]-4-(4-methoxybenzylamino)carbonylpiperazine [Compound 20]
[1]
  PLpro inhibitory activity (in words): no activity against PLpro

## COc1ccc(CNC(=O)C2CCN(Cc3cccc4ccccc34)CC2)cc1 [Compound 3]
[2]
  antiviral activity (in words): does not show any antiviral activity

## COc1ccccc1CNC(=O)C1CCN(Cc2cccc3ccccc23)CC1 [Compound 7a, 1-[(1-Naphthyl)methyl]-4-[(2-methoxybenzylamino)carbonyl]piperidine]
[1]
  PLpro inhibitory activity (in words): very poor inhibitory activity

## COc1ccccc1CNC(=O)C1CCN([C@H](C)c2cccc3ccccc23)CC1 [Compound 15a, 1-[(R)-1-(1-Naphthyl)ethyl]-4-(2-methoxybenzylamino)carbonylpiperidine]
[1]
  reduction in potency over 15b and 15c: 3 fold

## COc1ccc(CNC(=O)C2CCN([C@H](C)c3cccc4ccccc34)CC2)cc1 [Compound 15c, 1-[(R)-1-(1-Naphthyl)ethyl]-4-(4-methoxybenzylamino)carbonylpiperidine]
[1]
  potency enhancement over 3: > 170 fold

## COc1cccc(CNC(=O)C2CCN([C@@H](C)c3ccc4ccccc4c3)CC2)c1 [Compound 15f, 1-[(S)-1-(2-Naphthyl)ethyl]-4-(3-methoxybenzylamino)carbonylpiperidine]
[2]
  antiviral activity (in words): no antiviral activity
[1]
  more potent than the 2(R)-derivative 15d: 2 fold

## CC(C)(c1cccc2ccccc12)N1CCC(C(=O)NCc2ccc3c(c2)OCO3)CC1 [Compound 15k, 1-[1-Methyl-1-(1-naphthyl)ethyl]-4-[3,4-(methylenedioxy)benzylamino]carbonylpiperidine]
[1]
  PLpro inhibitory activity (in words): inactive
